Reference: article PMC3639963, “A New Class of Small Molecule Inhibitor of BMP Signaling” (PLoS ONE, 2013)
“And” between values parts separate entries of the source, which are not always exact repeats. Identical values can stand only once.

Tests used:
[1] = biological target: T1, TTK (Homo sapiens, UniProt P33981); assay: DSF thermal shift; type: binding; settings: 10 µM inhibitor; read-out: Tm shift
T1 construct: purchased Nanosyn (enzymatic panel); SGC in-house recombinant human kinases (DSF panel); Invitrogen (ALK1-6)
T1 sequence (P33981 1-857): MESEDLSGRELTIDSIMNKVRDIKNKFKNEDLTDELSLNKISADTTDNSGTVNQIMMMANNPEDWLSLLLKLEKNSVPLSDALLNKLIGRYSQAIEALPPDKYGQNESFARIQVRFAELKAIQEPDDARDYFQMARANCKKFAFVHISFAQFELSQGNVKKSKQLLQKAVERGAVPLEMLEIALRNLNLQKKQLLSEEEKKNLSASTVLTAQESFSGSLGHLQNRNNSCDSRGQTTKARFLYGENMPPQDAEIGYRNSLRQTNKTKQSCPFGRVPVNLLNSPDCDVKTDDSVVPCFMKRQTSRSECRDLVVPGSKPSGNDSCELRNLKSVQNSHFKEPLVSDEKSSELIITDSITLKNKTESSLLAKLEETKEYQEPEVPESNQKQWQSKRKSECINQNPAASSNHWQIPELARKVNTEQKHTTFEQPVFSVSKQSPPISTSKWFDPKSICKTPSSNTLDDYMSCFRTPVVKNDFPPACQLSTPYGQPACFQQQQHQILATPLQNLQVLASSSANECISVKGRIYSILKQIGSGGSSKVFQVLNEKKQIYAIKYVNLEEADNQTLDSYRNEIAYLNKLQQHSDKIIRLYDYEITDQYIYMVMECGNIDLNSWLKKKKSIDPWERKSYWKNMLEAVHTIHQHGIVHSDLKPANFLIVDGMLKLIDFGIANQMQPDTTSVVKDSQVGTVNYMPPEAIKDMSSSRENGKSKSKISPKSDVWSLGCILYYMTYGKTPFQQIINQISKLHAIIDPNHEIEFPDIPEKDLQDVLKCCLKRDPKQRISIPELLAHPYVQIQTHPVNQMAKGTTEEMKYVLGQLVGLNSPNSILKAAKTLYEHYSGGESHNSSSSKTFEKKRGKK
Method in brief: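 Ligand was tested at a single concentration of 10 µM against recombinant human kinase held at 1–2 µM, with melting curves collected by real-time PCR hardware.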

[2] = tested on: panel of 200 human kinases; assay: Kinome-wide selectivity, number of kinases inhibited; type: biochemical; settings: 1 µM inhibitor; 200 kinases
Protocol: (§1) Percentage inhibition was determined for each kinase at both 0.1 µM and 1 µM inhibitor concentration (supplemental Table S2). […]. […]. When visualized on a kinase phylogenetic tree, these were primarily clustered within the receptor tyrosine kinases (TKs) as well as the calmodulin-dependent kinases (CAMKs) (Figure 2C).
(§2) Inhibitor selectivity profiling against 200 human kinases at 0.1 and 1 µM inhibitor concentration was performed by Nanosyn (www.nanosyn.com).

[3] = tested on: SIK; assay: Nanosyn kinase profiling; type: biochemical, human
Protocol: as §1, §2

[4] = biological target: ActRIIA (ACVR2) (Homo sapiens, UniProt P27037); assay: Kinase-Glo assay; type: biochemical; settings: at the Km value of ATP, duplicate
Chain of ActRIIA (ACVR2) (P27037 20-513): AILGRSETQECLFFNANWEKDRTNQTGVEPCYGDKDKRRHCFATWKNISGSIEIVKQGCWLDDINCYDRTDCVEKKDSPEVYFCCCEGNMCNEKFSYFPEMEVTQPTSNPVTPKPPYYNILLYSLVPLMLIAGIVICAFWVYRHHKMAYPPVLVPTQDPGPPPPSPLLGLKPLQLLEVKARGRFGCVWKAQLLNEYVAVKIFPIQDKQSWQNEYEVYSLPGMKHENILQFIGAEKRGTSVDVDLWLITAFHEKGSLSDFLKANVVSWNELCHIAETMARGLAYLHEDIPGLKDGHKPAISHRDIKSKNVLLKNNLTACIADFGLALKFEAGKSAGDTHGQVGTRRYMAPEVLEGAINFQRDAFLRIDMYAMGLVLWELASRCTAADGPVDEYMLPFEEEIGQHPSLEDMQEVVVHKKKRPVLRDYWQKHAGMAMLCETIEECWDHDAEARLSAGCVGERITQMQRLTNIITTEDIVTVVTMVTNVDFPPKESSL
Protocol: A kinase assay for ActRIIA (ACVR2) was performed using Kinase-Glo® (Promega) as per manufacturer’s instructions. […] Inhibitors were added at concentrations between 0 and 10 µM in kinase reaction buffer and tested in duplicate. At 15 min, 30 min, 1 hr, 2 hr, and 3 hr 20 µL aliquots of the reaction mixture was transferred to a 384-well plate and 20 µL of Kinase-Glo® was added and allowed to rest for 10 min to quench the reaction and produce light which was measured using a Spectramax L luminometer (Molecular Devices).

[5] = biological target: T2, SRMS (Homo sapiens, UniProt Q9H3Y6); assay: Nanosyn kinase profiling; type: biochemical; settings: read-out: Percentage inhibition; for inhibition at 0.1 µM: 0.1 µM inhibitor; for inhibition at 1 µM: 1 µM inhibitor
T2 construct: purchased Nanosyn (enzymatic panel); SGC in-house recombinant human kinases (DSF panel); Invitrogen (ALK1-6)
T2 sequence (Q9H3Y6 whole entry): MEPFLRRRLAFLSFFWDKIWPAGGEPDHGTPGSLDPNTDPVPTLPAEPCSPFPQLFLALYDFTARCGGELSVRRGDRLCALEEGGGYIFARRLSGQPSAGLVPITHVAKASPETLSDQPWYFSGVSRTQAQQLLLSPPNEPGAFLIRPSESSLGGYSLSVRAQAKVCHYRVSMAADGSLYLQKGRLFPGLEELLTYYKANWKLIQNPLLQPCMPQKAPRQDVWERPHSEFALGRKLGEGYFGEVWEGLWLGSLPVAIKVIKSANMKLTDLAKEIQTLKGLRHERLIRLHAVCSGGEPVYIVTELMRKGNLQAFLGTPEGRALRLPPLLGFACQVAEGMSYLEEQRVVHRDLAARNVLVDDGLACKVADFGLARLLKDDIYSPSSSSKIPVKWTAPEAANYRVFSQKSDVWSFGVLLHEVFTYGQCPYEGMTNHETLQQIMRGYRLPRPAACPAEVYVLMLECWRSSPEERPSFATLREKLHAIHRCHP
Protocol: as §1, §2

[6] = biological target: T3, PI4-K-β (Homo sapiens, UniProt Q9UBF8); assay: Nanosyn kinase profiling; type: biochemical; settings: read-out: Percentage inhibition; for inhibition at 0.1 µM: 0.1 µM inhibitor; for inhibition at 1 µM: 1 µM inhibitor
T3 construct: purchased Nanosyn (enzymatic panel); SGC in-house recombinant human kinases (DSF panel); Invitrogen (ALK1-6)
T3 sequence (Q9UBF8 whole entry): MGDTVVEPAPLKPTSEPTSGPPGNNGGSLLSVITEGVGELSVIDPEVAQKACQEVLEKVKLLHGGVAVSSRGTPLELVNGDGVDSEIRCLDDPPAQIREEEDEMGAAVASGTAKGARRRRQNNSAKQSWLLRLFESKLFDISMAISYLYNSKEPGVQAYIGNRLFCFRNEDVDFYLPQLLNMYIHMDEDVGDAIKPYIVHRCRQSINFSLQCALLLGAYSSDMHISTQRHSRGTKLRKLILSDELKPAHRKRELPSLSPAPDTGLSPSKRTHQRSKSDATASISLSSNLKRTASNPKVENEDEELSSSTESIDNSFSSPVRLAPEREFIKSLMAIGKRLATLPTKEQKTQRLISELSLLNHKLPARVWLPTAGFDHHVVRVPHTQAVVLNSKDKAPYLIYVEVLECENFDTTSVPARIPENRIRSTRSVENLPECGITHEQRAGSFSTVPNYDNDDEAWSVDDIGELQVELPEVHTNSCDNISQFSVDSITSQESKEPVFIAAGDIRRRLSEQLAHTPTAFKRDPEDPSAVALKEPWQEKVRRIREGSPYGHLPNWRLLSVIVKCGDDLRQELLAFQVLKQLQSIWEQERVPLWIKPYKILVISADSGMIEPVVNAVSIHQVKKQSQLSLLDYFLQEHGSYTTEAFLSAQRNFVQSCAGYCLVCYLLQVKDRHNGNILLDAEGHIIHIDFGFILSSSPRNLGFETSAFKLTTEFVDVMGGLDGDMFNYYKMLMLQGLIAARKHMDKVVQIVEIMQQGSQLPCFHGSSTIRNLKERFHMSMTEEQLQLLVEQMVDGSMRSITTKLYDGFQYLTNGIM
Protocol: as §1, §2

[7] = biological target: T4, EPHB4 (Homo sapiens, UniProt P54760); assay: Nanosyn kinase profiling; type: biochemical; settings: read-out: Percentage inhibition; for inhibition at 0.1 µM: 0.1 µM inhibitor; for inhibition at 1 µM: 1 µM inhibitor
T4 construct: purchased Nanosyn (enzymatic panel); SGC in-house recombinant human kinases (DSF panel); Invitrogen (ALK1-6)
T4 sequence (P54760 16-987): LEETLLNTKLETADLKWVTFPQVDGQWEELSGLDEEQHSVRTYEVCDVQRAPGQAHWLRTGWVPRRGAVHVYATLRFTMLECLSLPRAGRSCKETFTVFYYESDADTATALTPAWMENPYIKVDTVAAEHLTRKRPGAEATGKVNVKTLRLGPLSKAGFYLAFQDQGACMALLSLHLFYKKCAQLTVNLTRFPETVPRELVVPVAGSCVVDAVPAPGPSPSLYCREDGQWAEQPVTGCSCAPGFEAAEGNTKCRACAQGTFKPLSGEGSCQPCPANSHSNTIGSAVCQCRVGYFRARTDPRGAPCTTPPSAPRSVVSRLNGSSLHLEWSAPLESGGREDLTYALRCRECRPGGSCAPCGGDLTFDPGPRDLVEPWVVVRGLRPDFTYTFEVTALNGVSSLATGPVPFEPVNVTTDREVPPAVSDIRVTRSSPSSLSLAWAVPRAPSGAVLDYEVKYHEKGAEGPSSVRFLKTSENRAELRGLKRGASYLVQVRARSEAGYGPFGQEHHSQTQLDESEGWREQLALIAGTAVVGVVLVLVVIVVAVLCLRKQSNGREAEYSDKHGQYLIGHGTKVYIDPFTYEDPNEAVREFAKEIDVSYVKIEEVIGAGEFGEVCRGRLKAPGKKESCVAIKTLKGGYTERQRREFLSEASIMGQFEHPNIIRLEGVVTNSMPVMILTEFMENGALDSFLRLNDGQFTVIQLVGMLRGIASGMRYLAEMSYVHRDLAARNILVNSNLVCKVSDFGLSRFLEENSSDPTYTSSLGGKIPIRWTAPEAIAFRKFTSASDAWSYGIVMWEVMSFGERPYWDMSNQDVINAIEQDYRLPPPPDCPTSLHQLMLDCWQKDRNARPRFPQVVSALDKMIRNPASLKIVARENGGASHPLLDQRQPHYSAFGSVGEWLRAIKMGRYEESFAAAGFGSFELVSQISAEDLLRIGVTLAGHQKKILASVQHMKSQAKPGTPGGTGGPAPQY
Protocol: as §1, §2

[8] = biological target: T5, LTK (Homo sapiens, UniProt P29376); assay: Nanosyn kinase profiling; type: biochemical; settings: read-out: Percentage inhibition; for inhibition at 0.1 µM: 0.1 µM inhibitor; for inhibition at 1 µM: 1 µM inhibitor
T5 construct: purchased Nanosyn (enzymatic panel); SGC in-house recombinant human kinases (DSF panel); Invitrogen (ALK1-6)
T5 sequence (P29376 17-864): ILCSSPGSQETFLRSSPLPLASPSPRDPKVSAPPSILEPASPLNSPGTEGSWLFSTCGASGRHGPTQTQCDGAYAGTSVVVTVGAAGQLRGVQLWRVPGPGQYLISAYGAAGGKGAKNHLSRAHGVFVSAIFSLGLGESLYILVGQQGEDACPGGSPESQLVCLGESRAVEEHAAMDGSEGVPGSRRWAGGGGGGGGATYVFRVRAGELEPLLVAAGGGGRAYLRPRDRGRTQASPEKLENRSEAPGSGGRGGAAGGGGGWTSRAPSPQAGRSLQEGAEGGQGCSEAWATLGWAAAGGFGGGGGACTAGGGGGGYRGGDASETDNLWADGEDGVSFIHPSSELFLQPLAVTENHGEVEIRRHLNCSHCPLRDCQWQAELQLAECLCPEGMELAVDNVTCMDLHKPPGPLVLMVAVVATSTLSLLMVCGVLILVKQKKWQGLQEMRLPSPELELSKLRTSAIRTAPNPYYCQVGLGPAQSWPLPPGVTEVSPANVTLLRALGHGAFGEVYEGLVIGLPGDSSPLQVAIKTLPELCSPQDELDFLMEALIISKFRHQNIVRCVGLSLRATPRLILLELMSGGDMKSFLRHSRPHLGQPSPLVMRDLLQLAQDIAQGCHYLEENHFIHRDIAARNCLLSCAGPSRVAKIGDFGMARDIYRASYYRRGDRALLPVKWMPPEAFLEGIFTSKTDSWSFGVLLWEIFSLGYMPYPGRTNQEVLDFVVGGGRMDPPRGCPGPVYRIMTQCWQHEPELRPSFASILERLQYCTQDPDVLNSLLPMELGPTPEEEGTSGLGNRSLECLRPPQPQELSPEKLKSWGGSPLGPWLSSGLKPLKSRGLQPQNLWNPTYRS
Protocol: as §1, §2

[9] = biological target: T6, MAPKAPK3 (Homo sapiens, UniProt Q16644); assay: Nanosyn kinase profiling; type: biochemical; settings: read-out: Percentage inhibition; for inhibition at 0.1 µM: 0.1 µM inhibitor; for inhibition at 1 µM: 1 µM inhibitor
T6 construct: purchased Nanosyn (enzymatic panel); SGC in-house recombinant human kinases (DSF panel); Invitrogen (ALK1-6)
T6 sequence (Q16644 whole entry): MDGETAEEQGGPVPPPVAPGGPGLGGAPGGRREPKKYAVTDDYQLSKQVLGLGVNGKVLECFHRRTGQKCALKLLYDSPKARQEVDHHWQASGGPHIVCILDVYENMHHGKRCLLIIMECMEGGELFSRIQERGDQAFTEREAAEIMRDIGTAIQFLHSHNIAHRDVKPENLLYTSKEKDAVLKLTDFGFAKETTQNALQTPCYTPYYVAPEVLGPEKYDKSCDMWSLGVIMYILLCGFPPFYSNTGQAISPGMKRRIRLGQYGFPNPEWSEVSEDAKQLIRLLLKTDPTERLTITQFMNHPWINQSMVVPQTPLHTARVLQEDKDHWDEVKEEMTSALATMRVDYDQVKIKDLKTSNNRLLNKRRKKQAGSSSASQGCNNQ
Protocol: as §1, §2

[10] = biological target: T7, EGFR (Homo sapiens, UniProt P00533); assay: Nanosyn kinase profiling; type: biochemical; settings: read-out: Percentage inhibition; for inhibition at 0.1 µM: 0.1 µM inhibitor; for inhibition at 1 µM: 1 µM inhibitor
T7 construct: purchased Nanosyn (enzymatic panel); SGC in-house recombinant human kinases (DSF panel); Invitrogen (ALK1-6)
T7 sequence (P00533 25-1210): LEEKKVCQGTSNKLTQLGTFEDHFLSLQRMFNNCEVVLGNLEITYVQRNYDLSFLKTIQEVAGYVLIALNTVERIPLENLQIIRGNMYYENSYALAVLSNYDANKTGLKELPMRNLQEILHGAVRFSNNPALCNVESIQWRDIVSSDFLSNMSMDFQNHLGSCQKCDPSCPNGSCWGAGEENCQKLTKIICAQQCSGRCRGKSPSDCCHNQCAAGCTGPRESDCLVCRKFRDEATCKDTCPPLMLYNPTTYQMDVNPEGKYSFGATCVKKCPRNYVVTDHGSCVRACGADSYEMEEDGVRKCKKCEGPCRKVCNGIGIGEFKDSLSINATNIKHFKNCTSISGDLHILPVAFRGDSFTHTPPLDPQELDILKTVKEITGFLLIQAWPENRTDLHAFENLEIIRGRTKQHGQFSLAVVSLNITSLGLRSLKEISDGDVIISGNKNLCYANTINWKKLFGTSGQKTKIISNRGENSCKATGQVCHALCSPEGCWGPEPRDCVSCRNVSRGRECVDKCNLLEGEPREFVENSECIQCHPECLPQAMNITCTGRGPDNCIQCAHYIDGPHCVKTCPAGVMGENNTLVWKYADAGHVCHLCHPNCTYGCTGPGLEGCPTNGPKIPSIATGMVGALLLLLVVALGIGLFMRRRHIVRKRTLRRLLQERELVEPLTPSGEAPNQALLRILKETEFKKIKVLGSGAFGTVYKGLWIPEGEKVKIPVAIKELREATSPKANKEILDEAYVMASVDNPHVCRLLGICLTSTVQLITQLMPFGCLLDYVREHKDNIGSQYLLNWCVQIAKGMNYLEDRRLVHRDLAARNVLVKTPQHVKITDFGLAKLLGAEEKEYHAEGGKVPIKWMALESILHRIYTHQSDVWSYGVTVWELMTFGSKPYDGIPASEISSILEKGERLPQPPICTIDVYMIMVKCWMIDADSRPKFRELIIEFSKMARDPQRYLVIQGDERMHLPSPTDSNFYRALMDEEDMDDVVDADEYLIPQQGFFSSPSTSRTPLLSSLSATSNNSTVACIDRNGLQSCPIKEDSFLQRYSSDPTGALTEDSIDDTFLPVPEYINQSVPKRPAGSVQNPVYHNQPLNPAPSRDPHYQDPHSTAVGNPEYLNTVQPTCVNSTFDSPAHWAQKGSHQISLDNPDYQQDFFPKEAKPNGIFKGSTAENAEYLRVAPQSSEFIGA
Protocol: as §1, §2

ΔTm at 10 µM [1]	Percentage inhibition ([3]; 0.1 µM inhibitor)	SMILES	further kinases with >50% inhibition (beyond ABL and ARG) [2]	Percentage inhibition ([3]; 1 µM inhibitor)	IC50 [4]	inhibition at 0.1 µM [5]	inhibition at 1 µM [5]	inhibition at 0.1 µM [6]	inhibition at 1 µM [6]	inhibition at 0.1 µM [7]	inhibition at 1 µM [7]	inhibition at 0.1 µM [8]	inhibition at 1 µM [8]	inhibition at 0.1 µM [9]	inhibition at 1 µM [9]	inhibition at 0.1 µM [10]	inhibition at 1 µM [10]	number of kinases with >50% inhibition [2]	Percentage inhibition ([3]; 0.1 µM inhibitor, 0.1 µM)
1 °C		c1cc(-c2cnn3cc(-c4ccc(OCCN5CCCCC5)cc4)cnc23)ccn1 [Dorsomorphin]																	
1.1 °C	9.4%	COc1cc(-c2cc(-c3cccc(O)c3)cnc2N)cc(OC)c1OC [K02288, 3-[6-amino-5-(3,4,5-trimethoxy-phenyl)-pyridin-3-yl]-phenol]	6 kinases	57%	220 nM	0.8%	17%	0.8%	-4%	0%	5.9%	3.6%	31%	-1%	-2%	2.4%	12%		
		c1ccc2c(-c3cnn4cc(-c5ccc(N6CCNCC6)cc5)cnc34)ccnc2c1 [LDN-193189]		96%	210 nM	-1%	8.9%	3.5%	5.8%	-1%	6.6%	3.6%	4%	1.6%	0.5%	1.5%	4.8%	21 kinases	63% and > 50%
